Measurements as given in patent publication EP0305845A1, “Pyridyl ethanol amines, pharmaceutical compositions containing them and processes for their preparation” (Dr. Karl Thomae GmbH, priority 1987, dated 1989).
Counter-ions that a name gives are not always drawn.

Assays:
Format in all cases: in vivo
[1] = tested on: weiblichen Mäusen eigener Zucht; assay: Antiadipose effect a): increase of lipolysis measured as rise of serum glycerol in mice; details: same procedure as the blood glucose test
Description: (§1) Die antidiabetische Wirkung der erfindungsgemäßen Verbindungen läßt sich als eine blutzuckersenkende Wirkung bei Versuchstieren messen. Die zu untersuchenden Substanzen wurden dazu in 1,5%iger Methylzellulose suspendiert und weiblichen Mäusen eigener Zucht mittels Schlundsonde appliziert. 30 Minuten später wurde 1 g Glukose pro kg Körpergewicht in Wasser gelöst und subkutan appliziert. Weitere 30 Minuten später wurde aus dem retroorbitalen Venenplexus Blut entnommen. Aus dem Serum wurde Glukose mit der Hexokinase-Methode mit Hilfe eines Analysenphotometers bestimmt.
Die antiadipöse Wirkung der erfindungsgemäßen Verbindungen wurde in zwei Versuchsanordnungen nachgewiesen: a) In der ersten Versuchsanordnung wurde die Steigerung der Lipolyse am Anstieg des Glyzerins im Serum gemessen. Der Versuchsablauf ist identisch mit der zur Testung auf blutzuckersenkende Wirkung vorstehend beschriebenen Versuchsanordnung. Glyzerin wurde in einem kombinierten enzymatisch-kolorimetrischen Test mit Hilfe eines Analysenphotometers bestimmt. Die Ergebnisse sind in der nachfolgenden Tabelle in % einer mitgeführten Kontrollgruppe aufgeführt.

[2] = tested on: weiblichen Mäusen eigener Zucht; assay: Antidiabetic effect: blood glucose lowering after subcutaneous glucose load in mice; details: 1 g/kg glucose s.c. 30 min later, serum glucose after a further 30 min
Description: as §1
In der nachstehenden Tabelle sind die bei dieser Versuchsanordnung beobachteten Blutzuckersenkungen in % einer mitgeführten Kontrollgruppe zusammengestellt. Die statistische Auswertung erfolgt nach dem t-Test nach Student mit p=0,05 als Signifikanzgrenze.

Mäusen [3] = assay: Antiadipose effect b): decrease of ovarian fat tissue weight in mice; details: dose 0,3 mg/kg once daily by gavage; fat tissue weighed on day 5
Description: b) In der zweiten Versuchsanordnung zur Erfassung antiadipö-ser Wirkung der erfindungsgemäßen Verbindungen wurde die Abnahme des Fettgewebes am Beispiel des Ovarfettgewebes gemessen. Die Verbindungen wurden zu diesem Zwecke Mäusen einmal täglich mittels Schlundsonde in 1,5%iger Methylzellulosesuspension appliziert. Am fünften Tag wurde das Ovarfettgewebe herauspräpariert und gewogen. In der nachfolgenden Tabelle sind die Ergebnisse in % einer mitgeführten Kontrollgruppe wiedergegeben.

Mäusen [4] = assay: Cardiac side effects: heart rate in mice by ECG-triggered tachograph; details: 1 hour after application
Description: Das Auftreten von unerwünschten Nebenwirkungen auf das Herz konnte für die erfindungsgemäßen Verbindungen für den therapeutisch angestrebten stoffwechselaktiven Dosisbereich ausgeschlossen werden. Als Nachweis diente die Messung der Herzfrequenz an Mäusen während der Testung auf blutzuckersenkende Wirkung (s.o.). Eine Stunde nach der oralen Applikation der Verbindungen wurde die Herzfrequenz mittels EKG-getriggertem Tachographen bestimmte. Die nachfolgende Tabelle gibt die Änderung der Herzfrequenz in % der Kontrollgruppe wieder.

[5] = dose 0,3 mg/kg oral, values in ( ) = not significant (p > 0.05)

CC(Cc1ccc(OCC(=O)O)cc1)NCC(O)c1cccc(Cl)n1 (single isomer, unassigned) [Beispiel 4, N-[2-(4-Carboxymethoxyphenyl)-1-methylethyl]-2-hydroxy-2-(6-chlor-pyridin-2-yl)ethanamin]
Anstieg des Glyzerins im Serum, % Änderung vom Wert der Kontrollgruppe ([1]; dose 0,3 mg/kg by gavage): +891%

CC(Cc1ccc(OCCO)cc1)NCC(O)c1cccc(Cl)n1 (single isomer, unassigned) [Beispiel 5]
Blutzuckersenkungen, % Änderung vom Wert der Kontrollgruppe ([2]; dose 0,3 mg/kg by gavage): -66%
Anstieg des Glyzerins im Serum, % Änderung vom Wert der Kontrollgruppe ([1]; dose 0,3 mg/kg by gavage): +878%
Abnahme des Ovarfettgewebes, % Änderung vom Wert der Kontrollgruppe (Mäusen [3]): -54%
Änderung der Herzfrequenz, % Änderung vom Wert der Kontrollgruppe (Mäusen [4]; [5]): (+27) %

COC(=O)COc1ccc(CC(C)NCC(O)c2cccc(Cl)n2)cc1 (stereo not drawn) [Beispiel 1, N-[2-(4-Carbomethoxymethoxyphenyl)-1-methylethyl]-2-hydroxy-2-(6-chlor-pyridin-2-yl)ethanamin-hydrochlorid]
Blutzuckersenkungen, % Änderung vom Wert der Kontrollgruppe ([2]; dose 1,0 mg/kg by gavage): -66%
Anstieg des Glyzerins im Serum, % Änderung vom Wert der Kontrollgruppe ([1]; dose 1,0 mg/kg by gavage): +882%
Änderung der Herzfrequenz, % Änderung vom Wert der Kontrollgruppe (Mäusen [4]; dose 10 mg/kg oral): +35%

CC(Cc1ccc(OCCO)cc1)NCC(O)c1cccc(Cl)n1 (stereo not drawn) [Beispiel 2, N-[2-(4-(2-Hydroxyethoxy)phenyl)-1-methylethyl]-2-hydroxy-2-(6-chlor-pyridin-2-yl)ethanamin-hydrochlorid]
Blutzuckersenkungen, % Änderung vom Wert der Kontrollgruppe ([2]; dose 0,1 mg/kg by gavage): -64%
Anstieg des Glyzerins im Serum, % Änderung vom Wert der Kontrollgruppe ([1]; dose 0,1 mg/kg by gavage): +454%
Änderung der Herzfrequenz, % Änderung vom Wert der Kontrollgruppe (Mäusen [4]; [5]): (+6,9) %

CC(Cc1ccc(OCC(=O)O)cc1)NCC(O)c1cccc(Cl)n1 (stereo not drawn) [Beispiel 3, N-[2-(4-Carboxymethoxyphenyl)-1-methylethyl]-2-hydroxy-2-(6-chlor-pyridin-2-yl)ethanamin]
Anstieg des Glyzerins im Serum, % Änderung vom Wert der Kontrollgruppe ([1]; dose 0,3 mg/kg by gavage): +309%
